The test system of data set [1] is conscious normotensive rats. The data set can be described thus: Hypotensive activity: blood pressure and heart rate in conscious normotensive rats after oral administration. The data set is classed as in vivo, rat. As for the experimental part: The effect of the compound on arterial blood pressure (systolic, SBP mean, MBP diastolic, DBP) and heart rate (HR) was evaluated in conscious normotensive rats (NTR). Four to six days before the experiments, a polyethylene catheter for recording arterial blood pressure was surgically implanted into the thoracic aorta via the carotid artery under ether anesthesia. Arterial blood pressure and heart rate were recorded under freely moving conditions. The test compounds were suspended in 0.5% methylcellulose solution and administered by oral gavage.
Table 2 summarizes the changes in HR, SBP, MBP and DBP of conscious NTR after oral administration of the test compounds.

Data set [2] concerns the target [^3 H]-Nitrendipine-labeled calcium channels. The data set can be described thus: [3H]-nitrendipine binding assay in rat brain membranes (Ca2+-antagonistic activity). To be noted: mean of 3 experiments, 95% confidence limits in parenthesis on next line. As for the experimental part:
1. Ca^2+ -Antagonistic activity:
Ca^2+ -Antagonistic activity of the compound was evaluated in [^3 H]-nitrendipine ([^3 H]-NIT) binding assay.

Data set [3] is described as follows: Acute toxicity in mice, intravenous (Up and Down Method). As to conditions: mouse, in vivo, i.v., ICR-SLC mice, n=10. As for the experimental part: Acute toxicity of the test compound was evaluated according to the method of Brownlee, Hodges and Rosenblatt (The Up and Down Method with Small Samples. J. Am. Stat. As., 48, 262-277, 1953). The […] value of the test compound after intravenous injection to ICR-SLC mice was obtained (Table 3).

The conditions of data set [4]: based on calcium antagonistic activity; cited from earlier work.

Usually Ki stands for a dissociation constant, usually derived from enzyme kinetics or from competition with a known ligand. One may read the LD50 as the dose at which mortality reaches 50%. Lower therefore signals a more toxic substance. Regarding `COC(=O)C1=C(C)NC(C)=C(C(=O)OC)C1c1cc([N+](=O)[O-])ccc1OCCCCNCCCOc1ccccc1` [Example 1, dimethyl 4-[2-[4-(3-phenoxypropylamino)butoxy]-5-nitrophenyl]-2,6-dimethyl-1,4-dihydropyridine-3,5-dicarboxylate], the “DBP Change (Δ)” value in data set [1] (30 mg/kg p.o., 1 hr, n=6, initial 103 ± 3.6) was -13.0 mmHg; in data set [1] (30 mg/kg p.o., 2 hr, n=6, initial 103 ± 3.6) it was -21.3 mmHg; in data set [1] (30 mg/kg p.o., 3 hr, n=6, initial 103 ± 3.6), -25.5 mmHg; in data set [1] (30 mg/kg p.o., 4 hr, n=6, initial 103 ± 3.6), -19.0 mmHg; in data set [1] (30 mg/kg p.o., 5 hr, n=6, initial 103 ± 3.6), -16.7 mmHg; in data set [1] (30 mg/kg p.o., 6 hr, n=6, initial 103 ± 3.6) it was -13.2 mmHg. In addition, the “DBP Change (Δ)” value is recorded as -12.5 mmHg in data set [1] (30 mg/kg p.o., 8 hr, n=6, initial 103 ± 3.6); -12.3 mmHg in data set [1] (30 mg/kg p.o., 10 hr, n=6, initial 103 ± 3.6); 0.7 mmHg in data set [1] (30 mg/kg p.o., 24 hr, n=6, initial 103 ± 3.6). The “MBP Change (Δ)” value was -12.1 mmHg in data set [1] (30 mg/kg p.o., 1 hr, n=6, initial 114 ± 3.6); -20.0 mmHg in data set [1] (30 mg/kg p.o., 2 hr, n=6, initial 114 ± 3.6); -25.1 mmHg in data set [1] (30 mg/kg p.o., 3 hr, n=6, initial 114 ± 3.6); -18.9 mmHg in data set [1] (30 mg/kg p.o., 4 hr, n=6, initial 114 ± 3.6); -16.5 mmHg in data set [1] (30 mg/kg p.o., 5 hr, n=6, initial 114 ± 3.6); -14.4 mmHg in data set [1] (30 mg/kg p.o., 6 hr, n=6, initial 114 ± 3.6). Further, the “MBP Change (Δ)” value in data set [1] (30 mg/kg p.o., 8 hr, n=6, initial 114 ± 3.6) is given as -13.5 mmHg; in data set [1] (30 mg/kg p.o., 10 hr, n=6, initial 114 ± 3.6), -13.1 mmHg; in data set [1] (30 mg/kg p.o., 24 hr, n=6, initial 114 ± 3.6), 0.7 mmHg. For the same compound, the “SBP Change (Δ)” value is listed as -10.2 mmHg in data set [1] (30 mg/kg p.o., 1 hr, n=6, initial 137 ± 3.7); -17.2 mmHg in data set [1] (30 mg/kg p.o., 2 hr, n=6, initial 137 ± 3.7); -24.3 mmHg in data set [1] (30 mg/kg p.o., 3 hr, n=6, initial 137 ± 3.7); -18.7 mmHg in data set [1] (30 mg/kg p.o., 4 hr, n=6, initial 137 ± 3.7); -16.2 mmHg in data set [1] (30 mg/kg p.o., 5 hr, n=6, initial 137 ± 3.7); -16.8 mmHg in data set [1] (30 mg/kg p.o., 6 hr, n=6, initial 137 ± 3.7). The “SBP Change (Δ)” value is given as -15.3 mmHg in data set [1] (30 mg/kg p.o., 8 hr, n=6, initial 137 ± 3.7); -14.7 mmHg in data set [1] (30 mg/kg p.o., 10 hr, n=6, initial 137 ± 3.7); 0.7 mmHg in data set [1] (30 mg/kg p.o., 24 hr, n=6, initial 137 ± 3.7). Also, the “HR Change (Δ)” value in data set [1] (30 mg/kg p.o., 1 hr, n=6, initial 361 ± 7.7) was 43.0 beats/min; in data set [1] (30 mg/kg p.o., 2 hr, n=6, initial 361 ± 7.7), 77.8 beats/min; in data set [1] (30 mg/kg p.o., 3 hr, n=6, initial 361 ± 7.7), 62.2 beats/min; in data set [1] (30 mg/kg p.o., 4 hr, n=6, initial 361 ± 7.7) it was 55.0 beats/min; in data set [1] (30 mg/kg p.o., 5 hr, n=6, initial 361 ± 7.7) it was 55.3 beats/min; in data set [1] (30 mg/kg p.o., 6 hr, n=6, initial 361 ± 7.7), 30.5 beats/min. In addition, the “HR Change (Δ)” value in data set [1] (30 mg/kg p.o., 8 hr, n=6, initial 361 ± 7.7) is 33.0 beats/min; in data set [1] (30 mg/kg p.o., 10 hr, n=6, initial 361 ± 7.7), 22.5 beats/min; in data set [1] (30 mg/kg p.o., 24 hr, n=6, initial 361 ± 7.7) it was 28.0 beats/min. The Ki in data set [2] amounted to 75 nM. Moreover, the LD50 in data set [3] is 29 mg/kg.

As for `COC(=O)C1=C(C)NC(C)=C(C(=O)OCCN(C)Cc2ccccc2)C1c1cccc([N+](=O)[O-])c1` (centres unmarked) [Nicardipine], in data set [4], the “cerebro- and/or coronary vasodilating action” value is listed as “exhibits cerebro- and/or coronary vasodilating action”.

With `COC(=O)C1=C(C)NC(C)=C(C(=O)OC)C1c1ccccc1[N+](=O)[O-]` [Nifedipine, reference compound], the “DBP Change (Δ)” value is listed as -20.9 mmHg in data set [1] (3 mg/kg p.o., 0.25 hr, n=8, initial 97 ± 1.8); -19.9 mmHg in data set [1] (3 mg/kg p.o., 0.5 hr, n=8, initial 97 ± 1.8); -20.1 mmHg in data set [1] (3 mg/kg p.o., 0.75 hr, n=8, initial 97 ± 1.8); -18.9 mmHg in data set [1] (3 mg/kg p.o., 1 hr, n=8, initial 97 ± 1.8); -11.8 mmHg in data set [1] (3 mg/kg p.o., 1.5 hr, n=8, initial 97 ± 1.8); -9.4 mmHg in data set [1] (3 mg/kg p.o., 2 hr, n=8, initial 97 ± 1.8). The “DBP Change (Δ)” value in data set [1] (3 mg/kg p.o., 3 hr, n=8, initial 97 ± 1.8) is given as -2.6 mmHg; in data set [1] (3 mg/kg p.o., 4 hr, n=8, initial 97 ± 1.8), 0.9 mmHg. In addition, the “MBP Change (Δ)” value is recorded as -18.7 mmHg in data set [1] (3 mg/kg p.o., 0.25 hr, n=8, initial 110 ± 1.8); -19.1 mmHg in data set [1] (3 mg/kg p.o., 0.5 hr, n=8, initial 110 ± 1.8); -19.5 mmHg in data set [1] (3 mg/kg p.o., 0.75 hr, n=8, initial 110 ± 1.8); -11.5 mmHg in data set [1] (3 mg/kg p.o., 1.5 hr, n=8, initial 110 ± 1.8); -9.7 mmHg in data set [1] (3 mg/kg p.o., 2 hr, n=8, initial 110 ± 1.8); -3.5 mmHg in data set [1] (3 mg/kg p.o., 3 hr, n=8, initial 110 ± 1.8). The “MBP Change (Δ)” value in data set [1] (3 mg/kg p.o., 4 hr, n=8, initial 110 ± 1.8) was found to be 0.5 mmHg. In addition, the “SBP Change (Δ)” value in data set [1] (3 mg/kg p.o., 0.25 hr, n=8, initial 136 ± 2.2) is listed as -14.4 mmHg; in data set [1] (3 mg/kg p.o., 0.5 hr, n=8, initial 136 ± 2.2), -17.6 mmHg; in data set [1] (3 mg/kg p.o., 0.75 hr, n=8, initial 136 ± 2.2), -18.1 mmHg; in data set [1] (3 mg/kg p.o., 1 hr, n=8, initial 136 ± 2.2), -17.0 mmHg; in data set [1] (3 mg/kg p.o., 1.5 hr, n=8, initial 136 ± 2.2), -11.0 mmHg; in data set [1] (3 mg/kg p.o., 2 hr, n=8, initial 136 ± 2.2), -10.4 mmHg. In addition, the “SBP Change (Δ)” value is on record as -5.4 mmHg in data set [1] (3 mg/kg p.o., 3 hr, n=8, initial 136 ± 2.2) and -0.3 mmHg in data set [1] (3 mg/kg p.o., 4 hr, n=8, initial 136 ± 2.2). Also, the “HR Change (Δ)” value in data set [1] (3 mg/kg p.o., 0.25 hr, n=8, initial 349 ± 6.9) was 77.4 beats/min; in data set [1] (3 mg/kg p.o., 0.5 hr, n=8, initial 349 ± 6.9), 51.6 beats/min; in data set [1] (3 mg/kg p.o., 0.75 hr, n=8, initial 349 ± 6.9) it was 35.4 beats/min; in data set [1] (3 mg/kg p.o., 1 hr, n=8, initial 349 ± 6.9) it was 23.0 beats/min; in data set [1] (3 mg/kg p.o., 1.5 hr, n=8, initial 349 ± 6.9), 12.9 beats/min; in data set [1] (3 mg/kg p.o., 2 hr, n=8, initial 349 ± 6.9), 2.3 beats/min. Moreover, the “HR Change (Δ)” value in data set [1] (3 mg/kg p.o., 3 hr, n=8, initial 349 ± 6.9) is recorded as -20.3 beats/min; in data set [1] (3 mg/kg p.o., 4 hr, n=8, initial 349 ± 6.9), -13.4 beats/min. The “cerebro- and/or coronary vasodilating action” value in data set [4] is recorded as “exhibits cerebro- and/or coronary vasodilating action”.

Source of the values: US4782160A, “1,4-dihydropyridine derivatives” (Yamanouchi Pharmaceutical Co., Ltd., priority 1986, dated 1988).
